{"source": "patent US9872875B2", "about": "“Component and method for treating viral disease” (Institut Pasteur of Shanghai, Chinese Academy of Sciences, priority 2012, dated 2018)", "key": {"[1]": {"tested_on": "Coxsackie virus A16 (CVA16)", "test": "Coxsackie virus A16 TCID50 in RD cells", "assay_type": "cell-based", "text": "Coxsackie virus A16 in 10-fold serial dilutions were used to infect RD cells at different E02 concentrations. After cultured for 2 days, CPE was observed under optical microscope, and stained with crystal violet, to calculate 50% tissue culture infective dose. Specific procedures were the same as the TCID50 testing method of Example 1."}, "[2]": {"tested_on": "EV71 clinical isolate (EV71 FY 573)", "test": "EV71 plaque forming units in RD cells", "assay_type": "cell-based, Enterovirus 71", "details": "Enterovirus A, EV71 FY 573, 5-7 days, read-out: EC50 to reduce EV71 PFU in RD cells", "procedure": "EV71 (clinical isolate of EV71 FY 573) was used to infect RD cells cultured in 12-well plates at different E02 concentrations. After cultured for 5 to 7 days, stained and plaque forming units were calculated. Procedures are detailed as follows:\n(1) Cell seeding: 24 h prior to infection, RD cells were seeded in 12-well cell culture plates, 2×10^5 cells per well.\n(2) Infection of cells: • a. Virus pre-incubated with drug: virus stock solution was in 10-fold serially diluted with DMEM to 50,000 PFU/ml, 5,000 PFU/ml, and 500 PFU/ml; and dispensed to 12-well plates at 500 μl per well, and 56 μl of E02 dissolved in DMEM at corresponding concentration was added, and incubated at 37° C. for 1 h; • b. Cells pre-incubated with drug: cell culture medium was removed from 12-well plates, each well was added 500 μl DMEM, then added 56 μl of E02 solution at corresponding concentration, and incubated at 37° C. for 1 h; • c. After 1 h incubation, drug was discarded from cell culture plates, 556 μl of virus pre-incubated with drug was transferred to cell culture plates, and incubated at 37° C. for 1 h; • d. […]\n(3) After cultured for 5-7 days, gels were removed, stained with crystal violet, washed once with PBS, plaque numbers recorded and plaque forming units calculated."}, "[3]": {"test": "Toxicity in ICR newborn mice", "assay_type": "in vivo", "details": "50 mg/kg or 20 mg/kg intraperitoneally daily for 4 consecutive days", "procedure": "Three-day-old ICR mice were injected intraperitoneally and daily with 50 μl of E02 at a dose of 50 mg/kg, 20 mg/kg, or 50 μl of DMEM for 4 consecutive days."}, "[4]": {"tested_on": "EV71 clinical isolate (EV71 FY 573)", "test": "EV71 infection in ICR newborn mice, serum viral load", "assay_type": "in vivo", "details": "50 mg/kg E02 intraperitoneally; 5 days after infection; infection group average 15.0", "procedure": "EV71 clinical isolate (EV71 FY 573) was used to infect three-day-old newborn ICR mice to test E02's efficacy to inhibit EV71 in vivo. Test mice were divided into three groups: drug group, infection group, and placebo group. When mice were two-day-old, drug group were intraperitoneally injected with 50 μl of E02 at a dose of 50 mg/kg. Infection group and placebo group were intraperitoneally injected with 50 μl of DMEM. When three-day-old, drug group was intraperitoneally injected with a mixture (50 μl) of E02 at a dose of 50 mg/kg and EV71 clinical isolate at a dose of 5×10^7 TCID50. Infection group was injected with a mixture of 5×10^7 TCID50 viruses (25 μl) and 25 μl of DMEM. Placebo group was injected with 50 μl of DMEM.\n5 days after infection, blood was collected and serum was separated. Viral RNA in serum was extracted (viral RNA extraction kit, QIAGEN QIAamp Viral RNA Mini Kit, cat #52906). Copies of EV71 5′UTR gene and GAPDH gene were detected using one-step real-time quantitative RT-PCR kit (QIAGEN QuantiTect SYBR Green RT-PCR Kit) in ABI 7900HT 384-well plates PCR system."}, "EV71 isolate SEP-4": {"tested_on": "EV71 isolate SEP-4", "test": "EV71 SEP-4 replication in Vero cells, quantitative RT-PCR", "assay_type": "cell-based, Enterovirus 71", "details": "SEP-4, Vero cells, MOI 0.1, 46 h", "procedure": "Vero cells were infected with EV71 SEP-4 virus strain (provided by Institut Pasteur of Cambodia, Cambodia strain) at different E02 concentrations, at the MOI of 0.1. After cultured for 46 h, viral RNA in culture supernatant was extracted. Relative EV71 viral load was determined by quantitative RT-PCR. For specific procedures, refer to Example 1."}, "[5]": {"tested_on": "EV71 clinical isolate SH-RS", "test": "EV71 SH-RS PFU in RD cells", "assay_type": "cell-based, Enterovirus 71", "details": "Enterovirus A, 168 h, 5~7 days, read-out: EC50 to reduce EV71 SH-RS PFU in RD cells", "procedure": "RD cells cultured in 12-well plates were infected with EV71 SH-TS or SH-RS at different E02 concentrations. After cultured for 5˜7 days, cells were stained and plaque-forming units were calculated. Same procedure is as detailed in “3. E02 reduces EV71 plaque forming units in RD cells” of Example 1."}, "[6]": {"tested_on": "EV71 clinical isolate SH-RS", "test": "EV71 SH-RS replication in RD cells, quantitative RT-PCR", "assay_type": "cell-based, Enterovirus 71", "details": "MOI 0.1, 46 h", "procedure": "RD cells were infected with EV71 SH-TS or SH-RS at different E02 concentrations, at the MOI of 0.1. After cultured for 46 h, viral RNA in culture supernatant was extracted. Relative EV71 viral load was determined by quantitative RT-PCR. See Example 1 for specific procedures of quantitative RT-PCR."}}}
{"smiles": "Cc1ccc(C(=O)Nc2ccc(S(=O)(=O)O)c3cc(S(=O)(=O)O)cc(S(=O)(=O)O)c23)cc1NC(=O)c1cccc(NC(=O)Nc2cccc(C(=O)Nc3cc(C(=O)Nc4ccc(S(=O)(=O)O)c5cc(S(=O)(=O)O)cc(S(=O)(=O)O)c45)ccc3C)c2)c1", "note": "[E02, Suramin Sodium]", "values": [{"measurement": "effect on CVA16 TCID50 in RD cells", "setting": "[1]; 10 μM of E02", "value": "CVA16 TCID50 reduction"}, {"measurement": "CVA16 titer in RD cells", "setting": "[1]; 25 μM of E02, reduced from 1×10^9 TCID50/ml, 2 days", "value": "1×10^4 TCID50/ml"}, {"measurement": "EC50", "setting": "[2]", "value": 2.6, "unit": "µM"}, {"measurement": "toxicity in three-day-old ICR mice", "setting": "[3]", "value": "No toxicity was observed"}, {"measurement": "RNA loading ratio between EV71 and GAPDH in serum, average value of drug group", "setting": "[4]", "value": 1.8}, {"measurement": "concentration reducing EV71 replication by 10-fold", "setting": "EV71 isolate SEP-4", "value": 5.89, "unit": "μM"}, {"measurement": "concentration reducing EV71 replication by 100-fold", "setting": "EV71 isolate SEP-4", "value": 15.49, "unit": "µM"}, {"measurement": "EC50", "setting": "[5]", "value": 3.47, "unit": "µM"}, {"measurement": "concentration reducing EV71 replication by 10-fold", "setting": "[6]", "value": 4.41, "unit": "μM"}, {"measurement": "concentration reducing EV71 replication by 1000-fold", "setting": "[6]", "value": 16.29, "unit": "µM"}]}
